From patent US6362207B1, “Methods of treating viral infections with benzimidazoles” (priority 1995, dated 2002) come the findings set out here.

One series relates to MCF-7L breast line. Put plainly: MCF-7L breast line study versus Navelbine and Taxol, tumor weight. The series is classed as in vivo, mice. To be noted: 16 mg/kg qd×5 i.p., carbendazim treatment begun on day 130; c1-c4 = day 236, 239, 245, 249.
The format of series [1] is in vivo. The settings on record: SK-MES, positive control 20 mg/kg, 5 doses. From the text: Additional in vivo cancer studies are presented in a tabular form below. The data is presented in the following format—dose regimen in parenthesis, dosage in mg/kg: tumor growth suppression (tg supp.), toxic deaths/number of test subjects (deaths), % weight change (wt).
In the next series the test system is HT29 colon tumor cells. Kind of series: MTT cell viability test, colon tumor cells. To be noted: HT-29, control 0.398. The series is classed as cell-based, human.
The next series relates to A549 lung tumor cells. Put plainly: MTT cell viability test, lung tumor cells. The settings on record: A-549, control 0.600. The series is classed as cell-based, human. For orientation: Tetrazolium assays rely on reduction of a dye to a coloured formazan, in cell work by metabolically active cells.
Series [2] deals with breast tumor cells (MCF-7). Kind of series: Related study of tumor cell killing (optical density). The settings on record: control 0.245. The series is classed as cell-based. From the text: In a related study using lung tumor cells (A-549) breast tumor cells (MCF-7) and colon tumor cells (HT-29), thiabeadazole effectively killed these cells.
The test system of a further series is B-16 mouse melanoma. The settings on record: mouse, in vivo. As for the experimental part: The data in Tables 1, 2 and 3 are reported in T/C which is interpreted using the following scale:
long term survivors for P388 is >30 days, for B16 it is >60 days. The NCI Measure of Success is T/C=125.
This study was performed in black mice injected i.p. with B-16 mouse melanoma which many researchers believe is the most predictive model for efficacy in humans. […] Death is the end point in this model.

Another series has as its system P388. Kind of series: P-388 model for leukemia, T/C. The series is classed as in vivo, mice. To be noted: mouse, in vivo. From the text: In the P-388 model for leukemia there was a dose responsive effect and the results were good.
The NCI Measure of Success is T/C=125.

The test system of series [3] is MX1 breast cancer tumors implanted subcutaneously. Put plainly: Tumor growth reduction in mice models (Table 5), breast. The class given is in vivo. To be noted: implanted subcutaneously under the mice skin.
The subject of series [4] is HIV-1 (CEM-SK1, U937-SK1, H9-SK1, U1 and ACH2 cells). Kind of series: HIV Virus Replication Study in chronically infected cells. The class given is cell-based. As to the method:
Thiabendazole was tested in chronically infected HIV virus. These cell populations contain integrated copies of the HIV genome and constituitively produce HIV at relatively high levels (CEM-SK1, U937-SK1 and H9-SK1 from Frederick Research Center, Maryland) or are latently infected and only produce virus after stimulation with phorbol esters, tumor necrosis factor or IL6 (U1 and ACH2).
Toxicity to the chronically infected cells was similar to that observed with the uninfected cells.
After 28 days of treatment on chronically infected cells, the toxicity of the compound to the target cells appeared similar in both uninfected and chronically infected cells.
This reduction of virus production occurs at concentrations which are nontoxic to the host cell and which have no effect on the synthesis of cellular DNA, RNA and protein.

Series [5] deals with HIV, chronically infected cells. Kind of series: Virus Resistance Studies. The series is classed as cell-based. The settings on record: cultures treated at 40 and 80 μg/ml.
Series [6] has the same test system. Put plainly: Reappearance of virus production from chronically infected cells previously treated. The class given is cell-based.
For series [7], the system named is HIV, pretreated chronically infected cells. The series is classed as cell-based. The settings on record: irrespective of the culture conditions.
The subject of series [8] is HIV-1 in U1 cells (promonocytic, from U937). Put plainly: Additional chronic HIV studies, monocytes. The series is classed as cell-based. The settings on record: 60 μg/ml. As for the experimental part: (§1) Chronic HIV-1 infected cells U1 were derived from an acute HIV-1 infection of the promonocytic cell line, U937. The chronic HIV-1 infected cells, ACH-2 were derived from an acute HIV-1 infection of the T cell line, A3.01.
(§2) These cells were cultured in medium and the phorbol ester, PMA. PMA causes the cells (both U1 and ACH-2) to be activated and not divide but it also causes the U-1 cells to differentiate. […] Cell viability was measured when these cell lines were treated with the test compound.
(§3) Both cell lines constituitively produce a small amount of HIV-1. ACH-2 cell lines tend to produce more HIV-1 than U1 cells as shown by p24 ELISA. When either cell line is cultured in the presence of PMA there is an increase in the quantity of HIV-1 produced as measured by the p24 antigen ELISA.
(§4) In addition, the number of […] positive HIV mRNA expressing cells per microscopic field is measured. Comparisons can be made from these numbers since the same number of cells were adhered to the glass slides for each drug concentration 10×10^6 cells/ml).
(§5) These cells were treated with test samples. […] The positive control was interferon which suppressed HIV monocytes replication by 80%.

In series [9] the test system is HIV-1 in ACH-2 cells (T cell line A3.01). Kind of series: Additional chronic HIV studies, T cells. The class given is cell-based. The settings on record: 60 μg/ml. As for the experimental part: as §1, §2, §3, §4, §5
The test system of the next series is HIV. Put plainly: microbe, parasite or virus in culture. The series is classed as cell-based. To be noted: Human immunodeficiency virus 1; 60 μg/ml; read-out: inhibition of viral replication.
Series [10] concerns herpes. Put plainly: In vivo herpes screening test. On the set-up: species or system mice. As for the experimental part:
The positive control was acyclovir at 75 mg/kg dose; 60% of the mice survived with a mean death date of 17.2 days.

For series [11], the system named is influenza. Put plainly: In vitro influenza model. The class given is cell-based.
Series [12] deals with influenza. Put plainly: In vivo model for influenza. Details: species or system mice. As for the experimental part: The positive control was amantadine (75 mg/kg) with 100% of the mice surviving for 21 days. 2-(Methoxycarbonylamino)benzimidazole was not active in the same test.
The test system of series [13] is herpes. Kind of series: In vitro herpes model. The series is classed as cell-based.
In series [14] the test system is Human Tumor Colony Forming Units. Kind of series: In Vitro Human Tumor Colony Forming Units Test.
The test system of a further series is Pancreas (Mia-PaCa). Kind of series: Pancreas (Mia-PaCa) model, tumor weight. To be noted: 80 mg/kg i.p. on days 1,4,7 and 10; c1 = day 40. The series is classed as in vivo, mice. As to the method: The dose response effect of carbendazim in mice infected with various cancer types was studied in standard screening tests.
The results of these studies conducted to study the dosage response of carbendazim on various cancer types are summarized below. […] Efficacy of carbendazim has been shown in the following cancers:
In the Pancreas (Mia-PaCa) model, carbendazim at 3000 and 4000 (mg/kg, twice weekly) is as good as or better than gemcitabine. At 2000 mg/kg the carbendazim was not as effective after 21 days. Gemcitabine was given on days 1,4,7 and 10 i.p.; the carbendazim was given p.o. twice weekly.

Structures are written as SMILES.

For `CC(=O)O[C@H]1C(=O)[C@@]2(C)[C@H]([C@H](OC(=O)c3ccccc3)[C@]3(O)C[C@H](OC(=O)[C@H](O)[C@@H](NC(=O)c4ccccc4)c4ccccc4)C(C)=C1C3(C)C)[C@]1(OC(C)=O)CO[C@@H]1C[C@@H]2O` [Taxol], the tumor weight in the series on MCF-7L breast line was 0 mg. Further, in series [1], the “% weight change (wt)” value is recorded as “+1%”, the “toxic deaths/number of test subjects (deaths)” value is listed as 0/10 and the “tumor growth suppression (tg supp.)” value is given as 75%.

In general, inhibition refers to how much of the control response was suppressed. `c1ccc2[nH]c(-c3cscn3)nc2c1` [thiabendazole, 2-(4-thiazolyl)-1-H-benzimidazole]: the “Optical Density” value with HT29 colon tumor cells (0.87 ppm) worked out at 0.852; in the series with HT29 colon tumor cells (3.46 ppm) it was 0.713; in the series with HT29 colon tumor cells (17.3 ppm), 0.204; in the series on HT29 colon tumor cells (35 ppm) it was 0.011; in the series with HT29 colon tumor cells (173 ppm), 0.005; in the series with A549 lung tumor cells (0.87 ppm) it was 1.32. In addition, the “Optical Density” value in the series on A549 lung tumor cells (3.46 ppm) is listed as 1.12; in the series on A549 lung tumor cells (17.3 ppm), 0.851; with A549 lung tumor cells (35 ppm) it was 0.411; in the series on A549 lung tumor cells (173 ppm), 0.007; in [2] (0.87 ppm) it was 0.507; in [2] (3.46 ppm), 0.466. Moreover, the figures for the “Optical Density” value in [2] (17.3 ppm), in series [2] (35 ppm) and in series [2] (173 ppm) were 0.258, 0.025 and 0.007, respectively. For the same compound, the “activity against B16” value with B-16 mouse melanoma is “no activity”. For the same compound, the “activity against P388” value in the series on P388 is “no activity”. Moreover, the “activity against MX1 breast cancer tumors” value in series [3] is on record as “no activity”. Besides, the “concentration at which stable reductions in virus production were observed” value in [4] (after 28 days of treatment) is given as “greater than 10 μg/ml”. The “concentrations that inhibited virus production” value in series [4] (chronically infected cells) lay in the range of 1 to 10 µg/mL. The virus production result in series [5] is “totally suppressed”. For the same compound, the “day by which virus production resumed after washing free of compound” value in series [6] (40 μg/ml) is no more than 12 days. Moreover, in series [6] (highest concentrations), the “day at which virus production was observed after washing free of compound” value was roughly 70 days. Moreover, the “time until virus production resumed after washing free of compound” value in [6] (lower concentrations (20 μg/ml and 4 μg/ml)) is recorded as no more than 4 days. For the same compound, the “virus production from pretreated cell populations, Groups 1-3” value in series [7] was “identical”. In series [8], the “suppression of replication in the HIV monocytes” value amounted to 74%. For the same compound, in [9], the “increase of T-cell HIV replication” value came out at 26%. Also, the inhibition at 60 µg/mL with HIV was found to be 98%. Moreover, the mean death date in the series on herpes [10] (100 mg/kg) was 9.2; in the series on herpes [10] (200 mg/kg) it was 10.4; in the series on influenza [12] (100 mg/kg), 8.7 days; in the series on influenza [12] (200 mg/kg) it was 8 days. Moreover, the mice survived in the series with herpes [10] (100 mg/kg) was found to be 50%; in the series with herpes [10] (200 mg/kg), 10%; in the series on influenza [12] (100 mg/kg), 62%; with influenza [12] (200 mg/kg), 67%. The activity entry in the series with influenza [11] and with herpes [13] was “no activity” each time. In addition, the “positive results / tumors tested” value in series [14] (1 Hour Exposure, 0.5 μg/ml) is given as 0/3; in series [14] (1 Hour Exposure, 5.0 μg/ml) it was 0/3; in series [14] (1 Hour Exposure, 50.0 μg/ml), 0/3; in series [14] (Continuous Exposure, 0.5 μg/ml), 1/10; in series [14] (Continuous Exposure, 5.0 μg/ml), 2/10; in [14] (Continuous Exposure, 50.0 μg/ml), 7/10.

Compound `Nc1ccn([C@@H]2O[C@H](CO)[C@@H](O)C2(F)F)c(=O)n1` [Gemcitabine, reference compound] displayed a tumor weight in the series on Pancreas (Mia-PaCa) of 503.7 mg.
